# Patent US10577353B2, “5-(n-[6,5]-fused bicyclic aryl tetrahydroisoquinolin-6-yl) pyridin-3-yl acetic acid derivatives as inhibitors of human immunodeficiency virus replication” (priority 2015, dated 2020)
# Tested on: recombinant NL-RLuc virus (NL4-3 derived HIV)
# Assay: Inhibition of HIV replication (NL-RLuc virus in MT-2 cells, luciferase readout)
# Type: cell-based
# Settings: Human immunodeficiency virus 1, NL43, MT2, 120 h
# Text: Inhibition of HIV Replication:
# A recombinant NL-RLuc proviral clone was constructed in which a section of the nef gene from NL4-3 was replaced with the Renilla Luciferase gene. This virus is fully infectious and can undergo multiple cycles of replication in cell culture. In addition, the luciferous reporter provides a simple and easy method for quantitating the extent of virus growth and consequently, the antiviral activity of test compounds. The plasmid pNLRLuc contains the proviral NL-Rluc DNA cloned into pUC 18 at the PvuII site. The NL-RLuc virus was prepared by transfection of 293T cells with the plasmid pNLRLuc. Transfections were performed using the LipofectAMINE PLUS kit from Invitrogen (Carlsbad, Calif.) according to the manufacturer and the virus generated was titered in MT-2 cells. For susceptibility analyses, the titrated virus was used to infect MT-2 cells in the presence of compound, and after 5 days of incubation, cells were processed and quantitated for virus growth by the amount of expressed luciferase. Assay media was RPMI 1640 supplemented with 10% heat inactivated fetal bovine serum (FBS), 100 units/ml penicillin G/100 units/ml streptomycin, 10 mM HEPES buffer pH 7.55 and 2 mM L-glutamine. The results from at least 2 experiments were used to calculate the EC50 values. Luciferase was quantitated using the Dual Luciferase kit from Promega (Madison, Wis.). Susceptibility of viruses to compounds was determined by incubation in the presence of serial dilutions of the compound. The 50% effective concentration (EC50) was calculated by using the exponential form of the median effect equation where (Fa)=1/[1+(ED50/drug conc.)^m] (Johnson V A, Byington R T. Infectivity Assay. In Techniques in HIV Research. ed. Aldovini A, Walker B D. 71-76. New York: Stockton Press. 1990).
row,SMILES,EC50 [nM]
1,"CNc1nc(N2CCc3cc(-c4c(C)nc(C)c([C@H](OC(C)(C)C)C(=O)O)c4N4CCC(C)(C)CC4)ccc3C2)nc2nc[nH]c12 [Compound 23, (S)-2-(tert-butoxy)-2-(4-(4,4-dimethylpiperidin-1-yl)-2,6-dimethyl-5-(2-(6-(methylamino)-7H-purin-2-yl)-1,2,3,4-tetrahydroisoquinolin-6-yl)pyridin-3-yl)acetic acid]",62
2,"Cc1nc(C)c([C@H](OC(C)(C)C)C(=O)O)c(N2CCC(C)(C)CC2)c1-c1ccc2c(c1)CCN(c1nc3cc(Cl)c(Cl)cc3s1)C2 [Compound 5, (S)-2-(tert-butoxy)-2-(5-(2-(5,6-dichlorobenzo[d]thiazol-2-yl)-1,2,3,4-tetrahydroisoquinolin-6-yl)-4-(4,4-dimethylpiperidin-1-yl)-2,6-dimethylpyridin-3-yl)acetic acid]",12
3,"Cc1nc(C)c([C@H](OC(C)(C)C)C(=O)O)c(N2CCC(C)(C)CC2)c1-c1ccc2c(c1)CCN(c1nc3c(Cl)cncc3s1)C2 [Compound 3, (S)-2-(tert-butoxy)-2-(5-(2-(7-chlorothiazolo[5,4-c]pyridin-2-yl)-1,2,3,4-tetrahydroisoquinolin-6-yl)-4-(4,4-dimethylpiperidin-1-yl)-2,6-dimethylpyridin-3-yl)acetic acid]",1
4,"Cc1nc(C)c([C@H](OC(C)(C)C)C(=O)O)c(N2CCC(C)(C)CC2)c1-c1ccc2c(c1)CCN(c1nc3ccc(F)cc3s1)C2 [Compound 8, (S)-2-(tert-butoxy)-2-(4-(4,4-dimethylpiperidin-1-yl)-5-(2-(6-fluorobenzo[d]thiazol-2-yl)-1,2,3,4-tetrahydroisoquinolin-6-yl)-2,6-dimethylpyridin-3-yl)acetic acid]",5
5,"Cc1nc(C)c([C@H](OC(C)(C)C)C(=O)O)c(N2CCC(C)(C)CC2)c1-c1ccc2c(c1)CCN(c1ncnc3sccc13)C2 [Compound 14, (S)-2-(tert-butoxy)-2-(4-(4,4-dimethylpiperidin-1-yl)-2,6-dimethyl-5-(2-(thieno[2,3-d]pyrimidin-4-yl)-1,2,3,4-tetrahydroisoquinolin-6-yl)pyridin-3-yl)acetic acid]",2
6,"Cc1nc(C)c([C@H](OC(C)(C)C)C(=O)O)c(N2CCC(C)(C)CC2)c1-c1ccc2c(c1)CCN(c1ncnc3cc(C(C)(C)C)sc13)C2 [Compound 28, (S)-2-(tert-butoxy)-2-(5-(2-(6-(tert-butyl)thieno[3,2-d]pyrimidin-4-yl)-1,2,3,4-tetrahydroisoquinolin-6-yl)-4-(4,4-dimethylpiperidin-1-yl)-2,6-dimethylpyridin-3-yl)acetic acid]",13
